Ends that are not written are not given here.
Tests used:
KpTs113 [1] = experiment: Peptide uptake by flow cytometry with Trypan Blue quenching; assay type: cell-based, Klebsiella pneumoniae; settings: KpTs113, 0.25 µM peptide, 10 min, 37 °C, 1 mg/mL TB
Description: Flow cytometric assays were performed with a Cytomics FC 500 instrument (Beckman-Coulter, Inc., Fullerton, CA, USA) equipped with an argon laser (488 nm, 5 mW) and photomultiplier tube fluorescence detectors. Filtered light wavelength was set at 610 nm for Propidium Iodide (PI) (Sigma, Saint Louis, MO, USA) detection and at 525 nm for BODIPY (BY) detection. All detectors were set on logarithmic amplification. Optical and electronic noise were eliminated by setting an electronic gating threshold on the forward scattering detector, while the flow rate was kept at a data rate below 300 events/second to avoid cell coincidence. For each sample, at least 10,000 events were acquired and stored as list mode files. For the uptake evaluation, cultures of mid-log phase bacteria, diluted to 1 × 10^6 CFU/mL in MHB, were incubated at 37 °C for 10 min with 0.25 µM Bac7(1–35)-BY; after incubation, treated bacterial cells were washed three times in buffered high salt solution (10 mM sodium phosphate, 400 mM NaCl, 10 mM MgCl2, pH 7.2) in order to remove the fraction of peptide bound to the cell surfaces, and immediately analysed by the flow cytometer with or without a 10 min pre-incubation at room temperature with 1 mg/mL of the quencher Trypan Blue (TB).

ATCC 700603 = assay type: cell-based, Klebsiella pneumoniae; settings: ATCC 700603, 24 h
Description: (§1) The bacterial inoculum was incubated overnight in MHB with shaking, then diluted 1:30 in fresh MHB and incubated with shaking for approximately 2 h to the mid-log phase, before resuspending to the appropriate dose, according to the optical density (OD). Minimum inhibitory concentration (MIC) determinations were carried out in MHB on mid-log phase bacteria (1–5 × 10^5 CFU/mL, CFU: colony-forming units) as previously described.

KpMn7 = assay type: cell-based, Klebsiella pneumoniae; settings: 24 h
Description: as §1

KpTs101 [2] = assay type: cell-based, Klebsiella pneumoniae; settings: 24 h
Description: as §1

KpTs107 = assay type: cell-based, Klebsiella pneumoniae; settings: 24 h
Description: as §1

KpTs109 = assay type: cell-based, Klebsiella pneumoniae; settings: 24 h
Description: as §1

KpTs113 [3] = assay type: cell-based, Klebsiella pneumoniae; settings: 24 h
Description: as §1

KpTs12 = assay type: cell-based, Klebsiella pneumoniae; settings: 24 h
Description: as §1

KpTs101 biofilm = experiment: Biofilm susceptibility assay (BIC), sessile cells on peg lids; assay type: cell-based, Klebsiella pneumoniae; settings: sessile KpTs101, 24 h with peptide, then 6 h regrowth, OD590 < 0.05
KpTs113 biofilm = experiment: as above; assay type: cell-based, Klebsiella pneumoniae; settings: sessile KpTs113, 24 h with peptide, then 6 h regrowth, OD590 < 0.05
KpTs101 [4] = assay type: cell-based, Klebsiella pneumoniae; settings: 24 h; remark: listed apart in the source
Description: (§2) Minimum inhibitory concentration (MIC) determinations were carried out in MHB on mid-log phase bacteria (1–5 × 10^5 CFU/mL, CFU: colony-forming units) as previously described. […] Data are reported in Table 2 (Ps column) together with MIC and BIC values from Table 1 for an easy comparison. […] To further investigate this protection mechanism, we then determined if the matrix polysaccharide interacted with the helical AMP BMAP-27 by monitoring its effect on peptide structure, using circular dichroism.

KpTs113 [5] = assay type: cell-based, Klebsiella pneumoniae; settings: 24 h; remark: listed apart in the source
Description: as §2

KpMn7 biofilm = settings: 24 h
ATCC 700603 biofilm = settings: ATCC 700603, 24 h
KpTs107 biofilm = settings: 24 h
KpTs12 biofilm = settings: 24 h
KpTs109 biofilm = settings: 24 h

Substance | quenching of cell fluorescence by Trypan Blue (uptake) (KpTs113 [1]) | MIC (ATCC 700603) | MIC (KpMn7) | MIC (KpTs101 [2]) | MIC (KpTs107) | MIC (KpTs109) | MIC (KpTs113 [3]) | MIC (KpTs12) | BIC (biofilm inhibitory concentration) (KpTs101 biofilm) | BIC (biofilm inhibitory concentration) (KpTs113 biofilm) | Ps, MIC in the presence of matrix polysaccharide (KpTs101 [4]) | Ps, MIC in the presence of matrix polysaccharide (KpTs113 [5]) | BIC (biofilm inhibitory concentration) (KpMn7 biofilm) | BIC (biofilm inhibitory concentration) (ATCC 700603 biofilm) | BIC (biofilm inhibitory concentration) (KpTs107 biofilm) | BIC (biofilm inhibitory concentration) (KpTs12 biofilm) | BIC (biofilm inhibitory concentration) (KpTs109 biofilm)
Bac7(1–35)-BY: BODIPY fluorescently labelled derivative of Bac7(1–35) (RRIRPRPPRLPRPRPRPLPFPRPGPRPIPRPLPFP; also: BODIPY label, position not given here; UniProt P19661 131-165, looked up, fragment) | < 10% |  |  |  |  |  |  |  |  |  |  |  |  |  |  |  | 
GRFKRFRKKFKKLFKKLSPVIPLLHL-NH2 [BMAP-27] |  | 4 µM | 4 µM | 2 µM | 4 µM | 4 µM | 2 µM | 4 µM | >64 µM | >64 µM | 64 µM | 64 µM | 64 µM | 64 µM | >64 µM | 16 µM | 32 µM
RRIRPRPPRLPRPRPRPLPFPRPGPRPIPRPLPFP [Bac7(1–35)] |  | 4 µM | 4 µM | 2 µM | 4 µM | 4 µM | 2 µM | 4 µM | 64 µM | 64 µM | 32 µM | 32 µM | 32 µM | 32 µM | 16 µM | 8 µM | 32 µM
